This passage reports IC50 results from patent publication US8841291B2, “Selective hydroxamic acid based MMP-12 and MMP-13 inhibitors” (Novartis AG, priority 2008, dated 2014).

Some results are limits rather than exact numbers.

One may read the IC50 as the point on the concentration scale where inhibition reaches its midpoint.

Experiment [1] addresses Collagenase-3 (MMP-13) (Homo sapiens, UniProt P45452). Kind of experiment: Collagenase-3 (MMP-13) inhibitory activity, fluorogenic peptide substrate assay. The settings on record: recombinant pro-collagenase-3 activated with 1 mM APMA; read-out: MMP13 IC50. It counts as biochemical.
Protocol: (§1) Stock solutions of inhibitors (0.03 mM-3 mM) are also prepared in DMSO. The inhibitors are diluted into the assay solutions, and the controls use an equal volume of DMSO so that the final DMSO concentration from the inhibitor and substrate dilutions in all assays is 1.0%. Assays are performed in an assay buffer (100 mM sodium chloride, 10 μM ZnCl. Sub 2, 10 mM CaCl2, 100 mM Tris-Cl pH7.5, 0.05% Brij-35), containing 1.0% DMSO from the substrate and inhibitor additions. The substrate concentration used in the assays is 5 μM. The assays are carried out at 20-25° C. […] The reaction mixtures are added in duplicate into appropriate wells of a 384-well assay plate. The reaction mixtures are preincubated with the inhibitors for 60 minutes The reactions are started by the addition of MMP substrate, and the fluorescence intensity changes are measured after 60 minutes The apparent enzyme activity in the presence of an inhibitor is then compared with that in the absence of any inhibitor to determine the inhibition effect of the inhibitor.
Collagenase-3 (MMP-13) inhibitory activity is determined as described above. Recombinant pro-collagenase-3 is activated with 1 mM APMA, and stored in the assay buffer after extensive dialysis in the assay buffer.
Experiment [2] concerns the target T1, Gelatinase (MMP-2) (Homo sapiens, UniProt P08253).
T1 sequence (P08253 110-660): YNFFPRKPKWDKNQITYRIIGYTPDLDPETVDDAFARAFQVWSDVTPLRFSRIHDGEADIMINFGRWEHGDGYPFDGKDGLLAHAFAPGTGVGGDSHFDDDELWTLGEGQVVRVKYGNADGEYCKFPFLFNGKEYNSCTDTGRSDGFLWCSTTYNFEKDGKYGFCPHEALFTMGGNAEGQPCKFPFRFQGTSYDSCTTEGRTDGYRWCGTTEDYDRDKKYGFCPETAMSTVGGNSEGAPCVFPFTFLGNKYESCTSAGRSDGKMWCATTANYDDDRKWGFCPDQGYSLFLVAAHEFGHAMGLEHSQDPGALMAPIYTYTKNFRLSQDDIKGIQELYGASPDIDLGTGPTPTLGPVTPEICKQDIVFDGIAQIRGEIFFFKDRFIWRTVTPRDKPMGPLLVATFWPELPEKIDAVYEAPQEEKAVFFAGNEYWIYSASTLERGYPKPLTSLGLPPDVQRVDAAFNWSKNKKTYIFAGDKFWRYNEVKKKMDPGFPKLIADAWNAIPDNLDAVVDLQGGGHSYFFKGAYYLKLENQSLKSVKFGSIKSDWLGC
The experiment can be described thus: Gelatinase (MMP-2) inhibitory activity, fluorogenic peptide substrate assay. It counts as biochemical. The settings on record: substrate 5 μM, 60 min preincubation, 20-25° C.; read-out: MMP2 IC50.
Protocol: as §1

As to `CC(C)CCN([C@@H](C(=O)NO)C(C)C)S(=O)(=O)c1ccc2ccccc2c1O` [Example 1, (R)—N-Hydroxy-2-[(1-hydroxy-naphthalene-2-sulfonyl)-(3-methyl-butyl)-amino]-3-methyl-butyramide], the values for the IC50 in experiment [1] and in experiment [2] were 672 nM and more than 3000 nM, respectively.
As for `CC(C)CCN(C1(C(=O)NO)CCCC1)S(=O)(=O)c1ccc2ccccc2c1` [Example 70, 1-[(3-Methyl-butyl)-(naphthalene-2-sulfonyl)-amino]-cyclopentanecarboxylic acid hydroxyamide], the IC50 in experiment [1] came to 212 nM; in experiment [2] it was 940 nM.
On to `CC(=O)Nc1ccc2cc(S(=O)(=O)N(CCCc3ccccc3)[C@@H](C(=O)NO)C(C)C)ccc2c1` [Example 34, 2-[(6-Acetylamino-naphthalene-2-sulfonyl)-(3-phenyl-propyl)-amino]-N-hydroxy-3-methyl-butyramide], for which the IC50 in experiment [1] was found to be 1310 nM; in experiment [2] it was 2900 nM.
Take `COc1c(S(=O)(=O)N(CCC(C)C)[C@@H](C(=O)NO)C(C)C)ccc2ccccc12` [Example 79, (R)—N-Hydroxy-2-[(1-methoxy-naphthalene-2-sulfonyl)-(3-methyl-butyl)-amino]-3-methyl-butyramide]: the IC50 in experiment [1] is 1.1 nM; in experiment [2], 51.8 nM.
On the same counts, the results for `CC(C)CCN([C@@H](C(=O)NO)C(C)C)S(=O)(=O)c1nc2ccccc2s1` [Example 98, (R)-2-[(Benzothiazole-2-sulfonyl)-(3-methyl-butyl)-amino]-N-hydroxy-3-methyl-butyramide] are 63 nM and 713 nM.
Turning to `O=C(NO)[C@H]1CCCCCN1S(=O)(=O)c1ccc2ccccc2c1` [Example 33, (R)-1-(Naphthalene-2-sulfonyl)-azepane-2-carboxylic acid hydroxyamide], the IC50 in experiment [1] amounted to 8.7 nM; in experiment [2] it was 74.5 nM.
Turning to `CCOc1ccc2ccc(S(=O)(=O)N(Cc3ccccc3)[C@@H](C(=O)NO)C(C)C)cc2c1` [Example 27, 2-[Benzyl-(7-ethoxy-naphthalene-2-sulfonyl)-amino]-N-hydroxy-3-methyl-butyramide], the values for the IC50 in experiment [1] and in experiment [2] were 535 nM and 4400 nM, respectively.
As to `CC(=O)Nc1ccc2cc(S(=O)(=O)N(CCC(C)C)[C@@H](C(=O)NO)C(C)C)ccc2c1` [Example 55, 2-[(6-Acetylamino-naphthalene-2-sulfonyl)-(3-methyl-butyl)-amino]-N-hydroxy-3-methyl-butyramide], the IC50 in experiment [1] is 3.1 nM; in experiment [2], 81.3 nM.
Take `CC1(C)SCCN(S(=O)(=O)c2ccc3ccccc3c2)[C@H]1C(=O)NO` [Example 90]: the IC50 in experiment [1] was less than 0.3 nM; in experiment [2], 50.7 nM.
For the molecule `CSCC[C@H](C(=O)NO)N(CCC(C)C)S(=O)(=O)c1ccc2ccccc2c1` [Example 20, (R)—N-Hydroxy-2-[(3-methyl-butyl)-(naphthalene-2-sulfonyl)-amino]-4-methylsulfanyl-butyramide], the IC50 amounted to 0.3 nM in experiment [1] and 12.1 nM in experiment [2].
`CS(=O)(=O)CCC(NS(=O)(=O)c1ccc2ccccc2c1)C(=O)NO` (stereo not shown) [Example 18, N-Hydroxy-4-methanesulfonyl-2-(naphthalene-2-sulfonylamino)-butyramide]: the IC50 in experiment [1] came out at 153 nM; in experiment [2], 157 nM.
On the same counts, the results for `C=CCOc1ccc2cc(S(=O)(=O)N(CCC(C)C)[C@@H](C(=O)NO)C(C)C)ccc2c1` [Example 66, 2-[(6-Allyloxy-naphthalene-2-sulfonyl)-(3-methyl-butyl)-amino]-N-hydroxy-3-methyl-butyramide] are 7.3 nM and 128 nM.
As for `CC(C)CCN(C1(C(=O)NO)CC1)S(=O)(=O)c1ccc2ccccc2c1` [Example 73, 1-[(3-Methyl-butyl)-(naphthalene-2-sulfonyl)-amino]-cyclopropanecarboxylic acid hydroxyamide], the IC50 in experiment [1] stood at 35 nM; in experiment [2], 402 nM.
`Cc1ccc(C)c(OCCN([C@@H](C(=O)NO)C(C)C)S(=O)(=O)c2ccc3ccccc3c2)c1C` [Example 75, N-(2-(2,3,6-trimethylphenoxy)ethyl)-N-(naphthalene-2-sulfonyl)-D-valine hydroxamic acid]: the IC50 in experiment [1] was 67.3 nM; in experiment [2], 3110 nM.
Take `Cc1ccc2ccc(S(=O)(=O)N(CCC(C)C)[C@@H](C(=O)NO)C(C)C)cc2c1` [Example 85, N-isoamyl-N-(6-methylnaphthalene-2-sulfonyl)-D-valine hydroxamic acid]: the figures for the IC50 in experiment [1] and in experiment [2] were 134 nM and 3350 nM, respectively.
With `CC(C)(C)[C@@H](NS(=O)(=O)c1ccc2ncccc2c1)C(=O)NO` [Example 92, (R)—N-Hydroxy-3,3-dimethyl-2-(quinoline-6-sulfonylamino)-butyramide], the IC50 in experiment [1] came out at 225 nM; in experiment [2], 765 nM.
As for `CCOc1ccc2ccc(S(=O)(=O)N(Cc3cccnc3)[C@@H](C(=O)NO)C(C)C)cc2c1` [Example 68, 2-[(7-Ethoxy-naphthalene-2-sulfonyl)-pyridin-3-ylmethyl-amino]-N-hydroxy-3-methyl-butyramide], the IC50 in experiment [1] is 28.7 nM; in experiment [2], 976 nM.
In the case of `O=C(NO)[C@H]1CCCCN1S(=O)(=O)c1ccc2ccccc2c1` [Example 9, (R)-1-(Naphthalene-2-sulfonyl)-piperidine-2-carboxylic acid hydroxyamide], the IC50 in experiment [1] is 4.9 nM; in experiment [2], 48.8 nM.
The corresponding values for `CC(C)(NS(=O)(=O)c1ccc2ccccc2c1)C(=O)NO` [Example 12, N-Hydroxy-2-methyl-2-(naphthalene-2-sulfonylamino)-propionamide] are 761 nM and 793 nM.
With `CC(C)[C@H](C(=O)NO)N(CCCc1ccccc1)S(=O)(=O)c1ccc2cc(N)ccc2c1` [Example 32, 2-[(6-Amino-naphthalene-2-sulfonyl)-(3-phenyl-propyl)-amino]-N-hydroxy-3-methyl-butyramide], the IC50 was 1 nM in experiment [1] and 82.2 nM in experiment [2].
As for `CC(C)CCOc1ccc2ccc(S(=O)(=O)N(CCC(C)C)[C@@H](C(=O)NO)C(C)C)cc2c1` [Example 86, (R)—N-Hydroxy-3-methyl-2-[[7-(3-methyl-butoxy)-naphthalene-2-sulfonyl]-(3-methyl-butyl)-amino]-butyramide], the IC50 in experiment [1] was 3250 nM; in experiment [2], more than 10000 nM.
Take `CN1CCOc2cc(S(=O)(=O)N3CC=CC[C@@H]3C(=O)NO)ccc21` [Example 94, (R)-1-(4-Methyl-3,4-dihydro-2H-benzo[1,4]oxazine-7-sulfonyl)-1,2,3,6-tetrahydro-pyridine-2-carboxylic acid hydroxyamide]: the IC50 in experiment [1] was 37 nM.
As to “(R)-1-(2,3,4a,8a-Tetrahydro-benzo[1,4]dioxine-6-sulfonyl)-1,2,3,6-tetrahydro-pyridine-2-carboxylic acid hydroxyamide [Example 95]”, the IC50 in experiment [1] was 2.6 nM.
In the case of `O=C(NO)[C@H]1CC=CCN1S(=O)(=O)c1ccc(N2CCOCC2)nc1` [Example 96, (R)-1-(6-Morpholin-4-yl-pyridine-3-sulfonyl)-1,2,3,6-tetrahydro-pyridine-2-carboxylic acid hydroxyamide], the IC50 in experiment [1] worked out at 326 nM.
As to `COc1ccc(S(=O)(=O)N2CC=CC[C@@H]2C(=O)NO)cc1OC` [Example 97, (R)-1-(3,4-Dimethoxy-benzenesulfonyl)-1,2,3,6-tetrahydro-pyridine-2-carboxylic acid hydroxyamide], in experiment [1], the IC50 amounted to 10200 nM.
